Laboratory results as given in patent publication US20230374038A1, “MODULATORS OF CYSTIC FIBROSIS TRANSMEMBRANE CONDUCTANCE REGULATOR” (VERTEX PHARMACEUTICALS INCORPORATED, priority 2020, published 2023).

Biological target: T1, CFTR (Homo sapiens, UniProt P13569, DEL508-508)
T1 construct: endogenous in cells; host or cells: primary human bronchial epithelial cells, F508del/MF genotype
Assay: HBE Assay: Ussing chamber assay of CFTR-mediated short-circuit currents in F508del/MF-HBE cells with 1 μM Ivacaftor
Type: cell-based
Settings: range of concentrations with 1 μM Ivacaftor, 18-24 hours, 20% human serum
Method in brief: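 F508del/MF-HBE cells at air-liquid interface >14 days were incubated 18-24 h at 37° C with corrector (concentration range or fixed 10 μM) plus 1 μM Ivacaftor in 20% human serum, compounds kept throughout. Ussing chamber, Vhold=0 mV, 37° C, apical amiloride 30 μM; ISC (μA/cm^2) from peak 20 μM forskolin response to steady state after CFTR inhibitor cocktail.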

T1 sequence (P13569 with tags, fused parts or gaps DEL508-508): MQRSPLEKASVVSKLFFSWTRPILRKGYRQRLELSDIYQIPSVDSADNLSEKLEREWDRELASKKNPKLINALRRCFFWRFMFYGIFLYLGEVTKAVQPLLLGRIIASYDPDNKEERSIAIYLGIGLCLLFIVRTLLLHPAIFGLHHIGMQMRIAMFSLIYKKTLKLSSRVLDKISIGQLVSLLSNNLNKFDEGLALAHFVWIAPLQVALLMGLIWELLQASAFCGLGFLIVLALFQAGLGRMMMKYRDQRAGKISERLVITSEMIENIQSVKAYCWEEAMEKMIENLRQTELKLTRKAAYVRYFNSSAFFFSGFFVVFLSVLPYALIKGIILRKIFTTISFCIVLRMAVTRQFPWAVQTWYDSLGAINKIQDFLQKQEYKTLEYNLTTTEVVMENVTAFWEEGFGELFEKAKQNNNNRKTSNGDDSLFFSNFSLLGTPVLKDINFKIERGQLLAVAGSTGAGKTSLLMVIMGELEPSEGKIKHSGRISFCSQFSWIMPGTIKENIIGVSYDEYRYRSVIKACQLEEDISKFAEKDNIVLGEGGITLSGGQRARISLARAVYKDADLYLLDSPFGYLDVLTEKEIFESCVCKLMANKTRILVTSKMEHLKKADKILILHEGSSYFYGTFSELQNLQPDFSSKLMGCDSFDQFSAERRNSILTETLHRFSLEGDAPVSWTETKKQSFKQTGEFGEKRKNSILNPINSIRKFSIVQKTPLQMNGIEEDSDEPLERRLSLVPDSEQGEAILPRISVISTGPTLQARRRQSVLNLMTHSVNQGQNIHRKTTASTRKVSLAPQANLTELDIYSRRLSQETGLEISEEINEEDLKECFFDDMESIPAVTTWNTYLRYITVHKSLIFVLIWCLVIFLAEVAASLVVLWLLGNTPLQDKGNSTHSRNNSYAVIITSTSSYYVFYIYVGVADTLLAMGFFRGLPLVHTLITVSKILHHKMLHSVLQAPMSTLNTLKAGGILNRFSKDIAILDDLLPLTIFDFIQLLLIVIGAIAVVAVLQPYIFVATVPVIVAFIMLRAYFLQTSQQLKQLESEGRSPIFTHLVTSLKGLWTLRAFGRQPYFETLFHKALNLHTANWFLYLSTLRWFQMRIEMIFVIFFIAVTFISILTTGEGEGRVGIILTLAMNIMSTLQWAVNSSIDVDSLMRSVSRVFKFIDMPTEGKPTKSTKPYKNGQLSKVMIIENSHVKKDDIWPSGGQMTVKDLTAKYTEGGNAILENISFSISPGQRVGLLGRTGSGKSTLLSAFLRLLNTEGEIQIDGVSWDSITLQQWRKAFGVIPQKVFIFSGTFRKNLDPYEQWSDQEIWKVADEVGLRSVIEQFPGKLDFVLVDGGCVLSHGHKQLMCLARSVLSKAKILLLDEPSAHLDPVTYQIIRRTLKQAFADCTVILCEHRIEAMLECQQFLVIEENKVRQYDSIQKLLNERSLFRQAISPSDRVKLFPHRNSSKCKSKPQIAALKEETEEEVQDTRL

SMILES | EC50 [nM]
Cc1cccc(C)c1-c1nc2nc(c1C)OC[C@@H](CC(C)(C)C)N(Cc1cnc(C3CCOCC3)cn1)C(=O)c1cccc(c1)S(=O)(=O)N2 [Compound 331] | < 1000

Same assay, conditions: single fixed concentration of 10 μM with 1 μM Ivacaftor, 18-24 hours, 20% human serum

SMILES | HBE Activity at 10 μM (%)
Cc1cccc(CC2COC2)c1-c1nc2nc(c1C)OC[C@@H](CC(C)(C)C)N(Cc1ncc(OC(C)C)cn1)C(=O)c1cccc(c1)S(=O)(=O)N2 [Compound 347] | +++ (+++ is >60%)
Cc1cccc(C)c1-c1nc2nc(c1F)OC[C@@H](CC1CCC1)N(Cc1ncc(OC(C)C)cn1)C(=O)c1cccc(c1)S(=O)(=O)N2 [Compound 354] | +++ (+++ is >60%)

Same assay, conditions: single fixed concentration of 10 μM, with 1 μM Ivacaftor, 20% human serum

SMILES | HBE Activity at 10 μM
Cc1cccc(CC2CCCC2)c1-c1nc2nc(c1C)OC[C@@H](CC(C)(C)C)NC(=O)c1cccc(c1)S(=O)(=O)N2 (atropisomer, axis not shown) [Compound 225] | +++ (+++ is >600%)
Cc1cccc(C)c1-c1nc2nc(c1C)OC[C@@H](CC(C)(C)C)N(Cc1ncc(N3CCC(C)(C)CC3)cn1)C(=O)c1cccc(c1)S(=O)(=O)N2 [Compound 192] | +++ (+++ is >600%)
Cc1cccc(OC(C)C)c1-c1nc2nc(c1C)OC[C@@H](CC(C)(C)C)N(Cc1cnc(N(C)CC(C)(C)C)cn1)C(=O)c1cccc(c1)S(=O)(=O)N2 [Compound 222] | +++ (+++ is >600%)
Cc1cccc(CC2CCCC2)c1-c1nc2nc(c1C)OC[C@@H](CC(C)(C)C)N(Cc1ccc(N3CCOCC3)cn1)C(=O)c1cccc(c1)S(=O)(=O)N2 (atropisomer, axis not shown) [Compound 288] | +++ (+++ is >600%)
Cc1cccc(CC(C)C)c1-c1nc2nc(c1C(F)(F)F)OC[C@@H](CC(C)(C)C)N(Cc1ncc(N3CCOCC3)cn1)C(=O)c1cccc(c1)S(=O)(=O)N2 (single isomer, unassigned) [Compound 213] | +++ (+++ is >600%)
Cc1cccc(CC2CCCC2)c1-c1nc2nc(c1C)OC[C@@H](CC(C)(C)C)N(Cc1cccc(N3CCC[C@H]3C)n1)C(=O)c1cccc(c1)S(=O)(=O)N2 (atropisomer, axis not shown) [Compound 269] | +++ (+++ is >600%)
Cc1cccc(CC2CCOCC2)c1-c1nc2nc(c1C)OC[C@@H](CC(C)(C)C)N(Cc1ncc(N3CCC(C)(C)C3)cn1)C(=O)c1cccc(c1)S(=O)(=O)N2 (atropisomer, axis not shown) [Compound 272] | ++ (++ is 30-60%)
Cc1cccc(CC2CCCCC2)c1-c1nc2nc(c1C(F)(F)F)OC[C@@H](CC(C)(C)C)N(Cc1ccc(N3CCOCC3)cn1)C(=O)c1cccc(c1)S(=O)(=O)N2 (atropisomer, axis not shown) [Compound 248] | +++ (+++ is >600%)
Cc1cccc(CC(C)C)c1-c1nc2nc(c1C)OC[C@@H](CC(C)(C)C)NC(=O)c1cccc(c1)S(=O)(=O)N2 (atropisomer, axis not shown) [Compound 227] | +++ (+++ is >600%)
Cc1cccc(CC(C)C)c1-c1nc2nc(c1C)OC[C@@H](CC(C)(C)C)NC(=O)c1cccc(c1)S(=O)(=O)N2 (atropisomer, axis not shown) [Compound 226] | +++ (+++ is >600%)
Cc1cccc(CC(C)C)c1-c1nc2nc(c1C)OC[C@@H](C(C)C)N(Cc1nccc(N(C)C(C)C)n1)C(=O)c1cccc(c1)S(=O)(=O)N2 (atropisomer, axis not shown) [Compound 232] | +++ (+++ is >600%)

Same assay, conditions: with 1 μM Ivacaftor, 18-24 hours, 20% human serum

SMILES | EC50 [nM] | HBE Max Activity
Cc1cccc(C)c1-c1nc2nc(c1C)OC[C@@H](C(C)C)N(Cc1cncc(N(C)CC(C)(C)C)n1)C(=O)c1cccc(c1)S(=O)(=O)N2 [Compound 195] | < 1000 | +++ (+++ is >600%)
Cc1cccc(CC(C)C)c1-c1nc2nc(c1C)OC[C@@H](CC(C)C)N(Cc1ncc(N3CCC(C)(C)C3)cn1)C(=O)c1cccc(c1)S(=O)(=O)N2 (atropisomer, axis not shown) [Compound 241] | < 1000 | +++ (+++ is >600%)
Cc1cccc(C)c1-c1nc2nc(c1C)OC[C@@H](CC(C)C)N(Cc1ncc(N3CCC(C)(C)C3)cn1)C(=O)c1cccc(c1)S(=O)(=O)N2 [Compound 199] | < 1000 | +++ (+++ is >600%)
Cc1cccc(C(C)C)c1-c1nc2nc(c1C)OC[C@@H](CC(C)(C)C)N(Cc1ncc(N3CCOCC3)cn1)C(=O)c1cccc(c1)S(=O)(=O)N2 (single isomer, unassigned) [Compound 209] | < 1000 | +++ (+++ is >600%)
Cc1ccnc(CN2C(=O)c3cccc(c3)S(=O)(=O)Nc3nc(c(C)c(-c4c(C)cccc4CC4CCCCC4)n3)OC[C@H]2CC(C)(C)C)n1 (atropisomer, axis not shown) [Compound 258] | < 1000 | +++ (+++ is >600%)
Cc1cccc(C(C)C)c1-c1nc2nc(c1C)OC[C@@H](CC(C)(C)C)N(Cc1ncc(N3CCOCC3)cn1)C(=O)c1cccc(c1)S(=O)(=O)N2 (single isomer, unassigned) [Compound 208] | < 1000 | +++ (+++ is >600%)
Cc1cccc(COC(C)C)c1-c1nc2nc(c1C)OC[C@@H](CC(C)(C)C)N(Cc1ncc(N3CCC(C)(C)C3)cn1)C(=O)c1cccc(c1)S(=O)(=O)N2 (single isomer, unassigned) [Compound 221] | < 1000 | +++ (+++ is >600%)
Cc1cccc(CC2CCCCC2)c1-c1nc2nc(c1C)OC[C@@H](CC(C)(C)C)N(Cc1cccc(N(C)CC(C)(C)C)n1)C(=O)c1cccc(c1)S(=O)(=O)N2 (atropisomer, axis not shown) [Compound 259] | < 1000 | +++ (+++ is >600%)
Cc1cccc(CC2CCCCC2)c1-c1nc2nc(c1C)OC[C@@H](CC(C)(C)C)N(Cc1nccc(N(C)C(C)C)n1)C(=O)c1cccc(c1)S(=O)(=O)N2 (atropisomer, axis not shown) [Compound 262] | < 1000 | +++ (+++ is >600%)
Cc1cccc(CC(C)C)c1-c1nc2nc(c1C)OC[C@@H](CC(C)C)N(Cc1cccc(N3CCC[C@H]3C)n1)C(=O)c1cccc(c1)S(=O)(=O)N2 (atropisomer, axis not shown) [Compound 237] | < 1000 | +++ (+++ is >600%)
Cc1cccc(CC2CCCCC2)c1-c1nc2nc(c1C)OC[C@@H](CC(C)(C)C)N(Cc1ccc(C3CCCCC3)cn1)C(=O)c1cccc(c1)S(=O)(=O)N2 (atropisomer, axis not shown) [Compound 277] | < 1000 | +++ (+++ is >600%)
Cc1cccc(CC2CCCCC2)c1-c1nc2nc(c1C)OC[C@@H](CC(C)(C)C)N(Cc1ccc(C3CCOCC3)cn1)C(=O)c1cccc(c1)S(=O)(=O)N2 [Compound 257] | < 1000 | +++ (+++ is >600%)

More lines, now with the values ahead:

EC50 [nM] | HBE Max Activity | SMILES
< 1000 | +++ (+++ is >600%) | CCc1cccc(C)c1-c1nc2nc(c1C)OC[C@@H](CC(C)(C)C)N(Cc1ccc(N3CCOCC3)cn1)C(=O)c1cccc(c1)S(=O)(=O)N2 (atropisomer, axis not shown) [Compound 287]
< 1000 | +++ (+++ is >600%) | Cc1cccc(CC(C)C)c1-c1nc2nc(c1C)OC[C@@H](CC(C)(C)C)N(Cc1ncc(N3CCOCC3)cn1)C(=O)c1cccc(c1)S(=O)(=O)N2 (atropisomer, axis not shown) [Compound 296]
< 1000 | +++ (+++ is >600%) | Cc1cccc(CC2CCCCC2)c1-c1nc2nc(c1C)OC[C@@H](CC(C)(C)C)N(Cc1ccc(N3CCCCC3)cn1)C(=O)c1cccc(c1)S(=O)(=O)N2 (atropisomer, axis not shown) [Compound 308]
< 1000 | +++ (+++ is >600%) | Cc1cccc(CC(C)C)c1-c1nc2nc(c1C)OC[C@@H](CC(C)C)N(Cc1cnc(C3CCOCC3)cn1)C(=O)c1cccc(c1)S(=O)(=O)N2 (atropisomer, axis not shown) [Compound 314]
< 1000 | +++ (+++ is >600%) | COc1ccc(CN2C(=O)c3cccc(c3)S(=O)(=O)Nc3nc(c(C)c(-c4c(C)cccc4CC4CCCCC4)n3)OC[C@H]2CC(C)(C)C)nc1 (atropisomer, axis not shown) [Compound 302]
< 1000 | +++ (+++ is >600%) | Cc1cccc(C(C)C)c1-c1nc2nc(c1C)OC[C@@H](CC(C)(C)C)N(Cc1ccc(N3CCOCC3)cn1)C(=O)c1cccc(c1)S(=O)(=O)N2 (atropisomer, axis not shown) [Compound 299]
< 1000 | +++ (+++ is >600%) | Cc1cccc(CC2CCCC2)c1-c1nc2nc(c1C)OC[C@@H](CC(C)(C)C)N(Cc1ccc(N3CCOCC3)cn1)C(=O)c1cccc(c1)S(=O)(=O)N2 (atropisomer, axis not shown) [Compound 289]
< 1000 | +++ (+++ is >600%) | Cc1cccc(CC2CCCCC2)c1-c1nc2nc(c1C)OC[C@@H](CC(C)(C)C)N(Cc1ncccc1N1CCOCC1)C(=O)c1cccc(c1)S(=O)(=O)N2 (atropisomer, axis not shown) [Compound 309]
< 1000 | +++ (+++ is >600%) | COCCN(C)c1cnc(CN2C(=O)c3cccc(c3)S(=O)(=O)Nc3nc(c(C)c(-c4c(C)cccc4CC(C)C)n3)OC[C@H]2CC(C)(C)C)nc1 (atropisomer, axis not shown) [Compound 294]
< 1000 | +++ (+++ is >600%) | Cc1cccc(CC(C)C)c1-c1nc2nc(c1C)OC[C@@H](CC(C)(C)C)N(Cc1ccc(N3CCOCC3)cn1)C(=O)c1cccc(c1)S(=O)(=O)N2 (atropisomer, axis not shown) [Compound 297]

Same assay, conditions: with 1 μM Ivacaftor, 18-24 hours, 20% human serum, compared to known Vertex corrector with 18 μM Tezacaftor and 1 μM Ivacaftor, read-out: HBE Max activity (%)

SMILES | Emax [%]
Cc1cccc(C)c1-c1nc2nc(c1C)OC[C@@H](CC(C)(C)C)N(Cc1cnc(C3CCOCC3)cn1)C(=O)c1cccc(c1)S(=O)(=O)N2 [Compound 331] | > 60
